Source: patent US11524960B2, “Heterobicyclic inhibitors of MAT2A and methods of use for treating cancer” (AGIOS PHARMACEUTICALS, INC., priority 2018, dated 2022)
pIC50: −log10 of the molar value.

Columns and labels:
HCT116 MTAP−/− = experiment: Inhibition of cellular proliferation (Cell Titer Glo), HCT116 MTAP−/−; format: cell-based, human; conditions: Homo sapiens, HCT-116, 96 h, 4 days, IC50 score, read-out: 4 Day Relative Growth Inhibition (MTAP −/−; Example 277)
How it was run: (§1)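 Proliferation was read as ATP luminescence (Cell Titer Glo) after a 4-day, 37 °C exposure of HCT116 cells differing only in MTAP deletion status. Dosing was 10 points, 3-fold steps, added 24 h post-plating; signal minus blank, relative to 0.2% DMSO control wells, was plotted against log molar concentration.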

HCT116 MTAP+/+ = experiment: Inhibition of cellular proliferation (Cell Titer Glo), HCT116 MTAP+/+; format: cell-based, human; conditions: Homo sapiens, HCT-116, 96 h, 4 days, IC50 score, read-out: 4 Day Relative Growth Inhibition (MTAP +/+; Example 277)
How it was run: as §1

[1] = tested on: SAM in HCT116 human colon carcinoma cell line engineered to delete the MTAP gene (MTAP −/−); experiment: Cellular assay of target engagement (SAM) by LC-MS/MS; format: cell-based; conditions: Homo sapiens, HCT-116, 72 h, IC50 score, read-out: Cell 72 h SAM Inhibition (MTAP −/−; Example 276)
How it was run: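 Intracellular SAM, the MAT2A product, was measured by quantitative LC-MS/MS against a d3-SAM standard in methanol/acetic acid extracts. Extracts came from HCT116 MTAP −/− cells exposed for 72 h at 37 °C to a ten-point, threefold dilution series of compound, added one day after seeding.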

MAT2A homodimer = biological target: T1, MAT2A homodimer (Homo sapiens, UniProt P31153); experiment: Biochemical assay: inhibition of MAT2A (phosphate release, PiColorLock Gold); conditions: MAT2A IC50 score; read-out: Enzyme Inhibition (Example 275)
T1 construct: inferred from Ni sepharose purification and imidazole elution; made in house; host or cells: Sf9 insect cells, recombinant baculovirus (Bac to Bac, pFASTBAC1)
How it was run: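 Phosphate formed alongside SAM was read with PiColorLock Gold and quantified against a potassium phosphate standard curve. Reactions ran 60 min at 25 °C after adding a substrate mix of 500 μM ATP and 400 μM L-methionine (mix concentrations). Compound had first been preincubated 60 min with recombinant Sf9-derived MAT2A homodimer ([…]) in pH 8.0 Tris buffer containing MgCl2, KCl, EDTA and BSA.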

T1 sequence (P31153 whole entry): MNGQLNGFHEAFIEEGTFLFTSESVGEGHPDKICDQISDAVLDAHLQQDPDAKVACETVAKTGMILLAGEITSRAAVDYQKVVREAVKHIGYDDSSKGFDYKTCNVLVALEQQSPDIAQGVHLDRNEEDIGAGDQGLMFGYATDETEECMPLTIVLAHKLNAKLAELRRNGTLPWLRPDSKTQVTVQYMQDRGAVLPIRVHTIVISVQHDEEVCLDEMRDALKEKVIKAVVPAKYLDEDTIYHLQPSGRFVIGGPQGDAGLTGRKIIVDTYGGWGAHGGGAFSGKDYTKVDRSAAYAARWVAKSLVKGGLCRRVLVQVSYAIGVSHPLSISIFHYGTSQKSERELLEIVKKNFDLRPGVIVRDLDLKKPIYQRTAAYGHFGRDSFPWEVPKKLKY

pIC50 (HCT116 MTAP−/−)	pIC50 (HCT116 MTAP+/+)	pIC50 [1]	pIC50 (MAT2A homodimer)	Structure (SMILES)
> 7.00	5.00 to 7.00	> 7.00	> 7.00	CCOc1ccc2cn(-c3ccc4nn(C)cc4c3)c(=O)c(-c3ccc(OC(F)F)nc3)c2n1 [Example 218, 8-(6-(difluoromethoxy)pyridin-3-yl)-2-ethoxy-6-(2-methyl-2H-indazol-5-yl)-1,6-naphthyridin-7(6H)-one]
> 7.00	5.00 to 7.00	> 7.00	> 7.00	CCOc1ccc2cn(-c3ccc4nn(C)cc4c3)c(=O)c(-c3ccc(C)nc3)c2n1 [Example 219, 2-ethoxy-6-(2-methyl-2H-indazol-5-yl)-8-(6-methylpyridin-3-yl)-1,6-naphthyridin-7(6H)-one]
> 7.00	5.00 to 7.00	> 7.00	> 7.00	CCOc1ccc2cn(-c3ccc4nn(C)cc4c3)c(=O)c(-c3ccc(C(F)(F)F)nc3)c2n1 [Example 220, 2-ethoxy-6-(2-methyl-2H-indazol-5-yl)-8-(6-(trifluoromethyl)pyridin-3-yl)-1,6-naphthyridin-7(6H)-one]
5.00 to 7.00	< 5.00	> 7.00	> 7.00	CCOc1ccc2cn(-c3ccc4nn(C)cc4c3)c(=O)c(-c3ccc(C4CC4)nc3)c2n1 [Example 221, 8-(6-cyclopropylpyridin-3-yl)-2-ethoxy-6-(2-methyl-2H-indazol-5-yl)-1,6-naphthyridin-7(6H)-one]
5.00 to 7.00	< 5.00	> 7.00	> 7.00	CCOc1ccc2cn(-c3ccc4nn(C)cc4c3)c(=O)c(-c3ccc(-c4nc[nH]n4)cc3)c2n1 [Example 222, 8-(4-(1H-1,2,4-triazol-3-yl)phenyl)-2-ethoxy-6-(2-methyl-2H-indazol-5-yl)-1,6-naphthyridin-7(6H)-one]
5.00 to 7.00	< 5.00	6.00 to 7.00	> 7.00	CCOc1ccc2cn(-c3ccc4nn(C)cc4c3)c(=O)c(-c3ccc(-c4cc[nH]n4)cc3)c2n1 [Example 223, 8-(4-(1H-pyrazol-3-yl)phenyl)-2-ethoxy-6-(2-methyl-2H-indazol-5-yl)-1,6-naphthyridin-7(6H)-one]
< 5.00	< 5.00	6.00 to 7.00	> 7.00	CCOc1ccc2cn(-c3ccc4nn(C)cc4c3)c(=O)c(-c3ccc(-c4c[nH]cn4)cc3)c2n1 [Example 224, 8-(4-(1H-imidazol-4-yl)phenyl)-2-ethoxy-6-(2-methyl-2H-indazol-5-yl)-1,6-naphthyridin-7(6H)-one]
5.00 to 7.00	5.00 to 7.00	> 7.00	6.00 to 7.00	CCOc1ccc2cn(-c3ccc4nn(CCS(C)(=O)=O)cc4c3)c(=O)c(-c3ccc(Cl)cc3)c2n1 [Example 225, 8-(4-chlorophenyl)-2-ethoxy-6-(2-(2-(methylsulfonyl)ethyl)-2H-indazol-5-yl)-1,6-naphthyridin-7(6H)-one]
> 7.00	5.00 to 7.00	> 7.00	> 7.00	CCOc1ccc2cn(-c3ccc4ncn(C)c4c3)c(=O)c(-c3ccc(C(F)(F)F)nc3)c2n1 [Example 226, 2-ethoxy-6-(1-methyl-1H-benzo[d]imidazol-6-yl)-8-(6-(trifluoromethyl)pyridin-3-yl)-1,6-naphthyridin-7(6H)-one]
> 7.00	5.00 to 7.00	> 7.00	> 7.00	CCOc1ccc2cn(-c3ccc4ncn(C)c4c3)c(=O)c(-c3ccc(C(F)(F)F)cc3)c2n1 [Example 227, 2-ethoxy-6-(1-methyl-1H-benzo[d]imidazol-6-yl)-8-(4-(trifluoromethyl)phenyl)-1,6-naphthyridin-7(6H)-one]
> 7.00	5.00 to 7.00	> 7.00	> 7.00	CCOc1ccc2cn(-c3ccc4ncn(C)c4c3)c(=O)c(-c3ccc(C4CC4)nc3)c2n1 [Example 228, 8-(6-cyclopropylpyridin-3-yl)-2-ethoxy-6-(1-methyl-1H-benzo[d]imidazol-6-yl)-1,6-naphthyridin-7(6H)-one]
> 7.00	5.00 to 7.00	> 7.00	> 7.00	CCOc1ccc2cn(-c3ccc4ncn(C)c4c3)c(=O)c(-c3ccc(OC(F)F)nc3)c2n1 [Example 229, 8-(6-(difluoromethoxy)pyridin-3-yl)-2-ethoxy-6-(1-methyl-1H-benzo[d]imidazol-6-yl)-1,6-naphthyridin-7(6H)-one]
> 7.00	5.00 to 7.00	> 7.00	> 7.00	CCOc1ccc2cn(-c3ccc4ncccc4c3)c(=O)c(-c3ccc(OC(F)F)cc3)c2n1 [Example 230, 8-(4-(difluoromethoxy)phenyl)-2-ethoxy-6-(quinolin-6-yl)-1,6-naphthyridin-7(6H)-one]
5.00 to 7.00	< 5.00	> 7.00	> 7.00	CCOc1ccc2cn(-c3ccc4ncccc4c3)c(=O)c(-c3ccc(C4CC4)nc3)c2n1 [Example 231, 8-(6-cyclopropylpyridin-3-yl)-2-ethoxy-6-(quinolin-6-yl)-1,6-naphthyridin-7(6H)-one]
> 7.00	< 5.00	> 7.00	> 7.00	CCOc1ccc2cn(-c3ccc4ncccc4c3)c(=O)c(-c3ccc(OC(F)F)nc3)c2n1 [Example 232, 8-(6-(difluoromethoxy)pyridin-3-yl)-2-ethoxy-6-(quinolin-6-yl)-1,6-naphthyridin-7(6H)-one]
> 7.00	< 5.00	> 7.00	> 7.00	Cn1cc2cc(-n3cc4ccc(OCC5CC5)nc4c(-c4ccc(Cl)cc4)c3=O)ccc2n1 [Example 233, 8-(4-chlorophenyl)-2-(cyclopropylmethoxy)-6-(2-methyl-2H-indazol-5-yl)-1,6-naphthyridin-7(6H)-one]
> 7.00	< 5.00	> 7.00	> 7.00	Cn1cnc2ccc(-n3cc4ccc(NCC(F)(F)F)nc4c(-c4ccc(Cl)cc4)c3=O)cc21 [Example 234, 8-(4-chlorophenyl)-6-(1-methyl-1H-benzo[d]imidazol-6-yl)-2-(2,2,2-trifluoroethylamino)-1,6-naphthyridin-7(6H)-one]
> 7.00	< 5.00	> 7.00	> 7.00	Cn1nnc2ccc(-n3cc4ccc(NCC(F)(F)F)nc4c(-c4ccc(Cl)cc4)c3=O)cc21 [Example 235, 8-(4-chlorophenyl)-6-(1-methyl-1H-benzo[d][1,2,3]triazol-6-yl)-2-(2,2,2-trifluoroethylamino)-1,6-naphthyridin-7(6H)-one]
> 7.00	< 5.00	> 7.00	> 7.00	Cn1cc2cc(-n3cc4ccc(NCC(F)(F)F)nc4c(-c4ccc(Cl)cc4)c3=O)ccc2n1 [Example 236, 8-(4-chlorophenyl)-6-(2-methyl-2H-indazol-5-yl)-2-(2,2,2-trifluoroethylamino)-1,6-naphthyridin-7(6H)-one]
> 7.00	< 5.00	> 7.00	> 7.00	Cc1c2cc(-n3cc4ccc(NCC(F)(F)F)nc4c(-c4ccc(Cl)cc4)c3=O)ccc2nn1C [Example 237, 8-(4-chlorophenyl)-6-(2,3-dimethyl-2H-indazol-5-yl)-2-(2,2,2-trifluoroethylamino)-1,6-naphthyridin-7(6H)-one]
> 7.00	5.00 to 7.00	> 7.00	> 7.00	Cn1cc2cc(-n3cc4ccc(NCC(F)(F)F)nc4c(-c4ccc(OC(F)F)cc4)c3=O)ccc2n1 [Example 239, 8-(4-(difluoromethoxy)phenyl)-6-(2-methyl-2H-indazol-5-yl)-2-(2,2,2-trifluoroethylamino)-1,6-naphthyridin-7(6H)-one]
> 7.00	< 5.00	> 7.00	> 7.00	Cn1cnc2ccc(-n3cc4ccc(NCC(F)(F)F)nc4c(-c4ccc(OC(F)F)cc4)c3=O)cc21 [Example 240, 8-(4-(difluoromethoxy)phenyl)-6-(1-methyl-1H-benzo[d]imidazol-6-yl)-2-(2,2,2-trifluoroethylamino)-1,6-naphthyridin-7(6H)-one]
> 7.00	5.00 to 7.00	> 7.00	> 7.00	COc1ccc(-n2cc3ccc(NCC(F)(F)F)nc3c(-c3ccc(OC(F)F)cc3)c2=O)cc1 [Example 241, 8-(4-(difluoromethoxy)phenyl)-6-(4-methoxyphenyl)-2-(2,2,2-trifluoroethylamino)-1,6-naphthyridin-7(6H)-one]
> 7.00	< 5.00	> 7.00	> 7.00	Cn1cc2cc(-n3cc4ccc(NC5CC5)nc4c(-c4ccc(OC(F)F)cc4)c3=O)ccc2n1 [Example 242, 2-(cyclopropylamino)-8-(4-(difluoromethoxy)phenyl)-6-(2-methyl-2H-indazol-5-yl)-1,6-naphthyridin-7(6H)-one]
